In US8067411B2, “Compounds” (AstraZeneca AB, priority 2006, dated 2011):

The compounds below were run against T1, Recombinant human TLR7 (Homo sapiens, UniProt Q9NYK1) (assay: Human TLR7 assay (SEAP reporter in HEK293 cells)). Conditions: log of the minimal effective concentration of compound to induce SEAP release; HEK293 pNiFty2-SEAP reporter cell line, overnight incubation at 37° C., 0.1% (v/v) DMSO.
T1 construct: expressed in transfected cells; host or cells: HEK293 cell line stably expressing the pNiFty2-SEAP reporter plasmid; TLR7 in pUNO vector, blasticidin selection
T1 sequence (Q9NYK1 27-1049): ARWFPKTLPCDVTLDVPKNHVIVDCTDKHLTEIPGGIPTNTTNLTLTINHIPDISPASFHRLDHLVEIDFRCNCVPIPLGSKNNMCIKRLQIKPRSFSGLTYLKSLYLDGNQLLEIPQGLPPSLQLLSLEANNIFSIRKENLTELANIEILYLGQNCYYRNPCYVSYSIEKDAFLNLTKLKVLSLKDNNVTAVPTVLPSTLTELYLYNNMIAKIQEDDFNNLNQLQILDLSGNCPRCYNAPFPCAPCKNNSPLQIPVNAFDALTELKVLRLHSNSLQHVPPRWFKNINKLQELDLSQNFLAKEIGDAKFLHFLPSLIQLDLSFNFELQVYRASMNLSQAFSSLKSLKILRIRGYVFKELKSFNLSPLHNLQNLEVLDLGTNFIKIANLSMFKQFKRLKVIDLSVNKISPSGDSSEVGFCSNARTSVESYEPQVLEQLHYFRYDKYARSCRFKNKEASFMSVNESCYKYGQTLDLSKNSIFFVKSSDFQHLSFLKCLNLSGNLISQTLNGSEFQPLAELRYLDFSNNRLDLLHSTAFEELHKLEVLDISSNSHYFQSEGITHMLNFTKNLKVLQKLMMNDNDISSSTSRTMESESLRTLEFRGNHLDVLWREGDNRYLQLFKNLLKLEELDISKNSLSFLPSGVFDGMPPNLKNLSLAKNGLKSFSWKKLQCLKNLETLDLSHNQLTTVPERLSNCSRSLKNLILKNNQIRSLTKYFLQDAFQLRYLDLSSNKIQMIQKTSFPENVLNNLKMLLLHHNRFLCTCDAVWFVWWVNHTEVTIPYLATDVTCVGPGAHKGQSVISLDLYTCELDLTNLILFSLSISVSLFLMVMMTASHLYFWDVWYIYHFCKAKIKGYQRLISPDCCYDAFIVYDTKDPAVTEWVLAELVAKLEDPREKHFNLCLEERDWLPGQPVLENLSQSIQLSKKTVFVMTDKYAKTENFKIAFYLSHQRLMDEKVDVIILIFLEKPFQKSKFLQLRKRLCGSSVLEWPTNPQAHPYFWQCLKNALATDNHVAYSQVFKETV
Assay type: cell-based
Source text: Recombinant human TLR7 was stably expressed in a HEK293 cell line already stably expressing the pNiFty2-SEAP reporter plasmid; integration of the reporter gene was maintained by selection with the antibiotic zeocin. The most common variant sequence of human TLR7 (represented by the EMBL sequence AF240467) was cloned into the mammalian cell expression vector pUNO and transfected into this reporter cell-line. Transfectants with stable expression were selected using the antibiotic blasticidin. In this reporter cell-line, expression of secreted alkaline phosphatase (SEAP) is controlled by an NFkB/ELAM-1 composite promoter comprising five NFkB sites combined with the proximal ELAM-1 promoter. TLR signaling leads to the translocation of NFkB and activation of the promoter results in expression of the SEAP gene. TLR7-specific activation was assessed by determining the level of SEAP produced following overnight incubation of the cells at 37° C. with the standard compound in the presence of 0.1% (v/v) dimethylsulfoxide (DMSO). Concentration dependent induction of SEAP production by compounds was expressed as the log of the minimal effective concentration of compound to induce SEAP release (pMEC).

| Structure (SMILES) | pMEC |
| --- | --- |
| CCCCOc1nc(N)c2[nH]c(=O)n(CCCN(CCCN3CCOCC3)Cc3ccc(SC)cc3)c2n1 [Example 8, 6-Amino-2-butoxy-9-{3-[[4-(methylthio)benzyl] (3-morpholin-4-ylpropyl)amino]propyl}-7,9-dihydro-8H-purin-8-one] | 7.2 |
| CCCCOc1nc(N)c2[nH]c(=O)n(CCCN(CCCN3CCOCC3)Cc3cc(OC)cc(OC)c3)c2n1 [Example 12, 6-Amino-2-butoxy-9-{3-[(3,5-dimethoxybenzyl)(3-morpholin-4-ylpropyl)amino]propyl}-7,9-dihydro-8H-purin-8-one] | >7.7 |
| CCCCOc1nc(N)c2[nH]c(=O)n(CCCN(CCCN3CCOCC3)Cc3ccc(-n4cncn4)cc3)c2n1 [Example 16, 6-Amino-2-butoxy-9-(3-{(3-morpholin-4-ylpropyl)[4-(1H-1,2,4-triazol-1-yl)benzyl]amino}propyl)-7,9-dihydro-8H-purin-8-one] | 7.4 |
